Molecules are shown by their SMILES. Like-named read-outs stand apart in the source and are kept apart here. Marks after values point to notes of the source that are not given here.

Holding throughout (type): in vivo
Assay [1] relates to ICR mice. Description: Triglyceride (TG) in blood plasma increase-inhibiting action due to lipid administration. The settings on record: Mus musculus; male ICR mice, 5 mg/kg oral, lipid (Intralipos 20%) after 30 minutes, plasma TG 2 hours after lipid; read-out: Inhibiting rate of TG-increase in blood plasma (5 mg/kg). As to the method: 6 to 9 weeks-old male ICR mice were fasted overnight, and Test compound suspended in 0.2% carboxymethyl cellulose solution was orally administered to the mice. A lipid (Intralipos 20%, OTSUKA PHARMACEUTICAL CO., LTD., 10 mL/kg) was orally administered after 30 minutes. Blood was collected from tail vein immediately before the lipid administration, and after 2 hours from the same to obtain blood plasma. Measurement of TG in blood plasma was carried out by using a triglyceride E Test Wako (Wako Pure Chemical Industries, Ltd.), and an increased value of TG in blood plasma by administration of the lipid was calculated. An increased value of TG in blood plasma in a solvent control group was used as a control, and an inhibiting rate in increase of TG in blood plasma in the Test compound administered group was calculated.

Assay [2] relates to C57BL/6J mice. Description: Antifeeding activity (high fat diet intake up to 4 hours). To be noted: Mus musculus, male C57BL/6J mice, 5 mg/kg oral, food ingested up to 4 hours, read-out: Antifeeding rate (5 mg/kg). How it is done: 7 to 10 weeks-old male C57BL/6J mice were fasted overnight, and the test compound suspended in 0.2% carboxymethylcellulose solution was orally administered. Immediately after the administration, high fat diet (Oriental Yeast Co., Ltd, 60 cal % fat) was provided and freely fed. An amount of food ingested up to 4 hours was measured, and a lowering rate (an antifeeding rate) of the amount of food ingested in the Test compound administered group was calculated as compared to that of the solvent control group as a control.

The test system of assay [3] is KK-Ay mice. Description: Weight gain-inhibiting action, hypoglycemic effect, insulin in blood plasma lowering action in KK-Ay mice. To be noted: male KK-Ay mice, high fat diet, 2 weeks; for inhibition in vivo at 30 mg/kg: Mus musculus, 336 h, 30 mg/kg/day oral. As to the method: To 8 weeks-old male KK-Ay mice were provided high fat diet (Oriental Yeast Co., Ltd, 60 cal % fat), and Test compound suspended in 0.2% carboxymethylcellulose solution was orally administered once a day. Oral administration was continued for 2 weeks, and a weight gain-inhibiting rate of the Test compound was calculated by using a weight gain amount of the solvent control group during the test period as 100%. After final administration, the mice were fasted overnight, and blood was collected from tail vein. Measurement of a blood-sugar level was carried out by using glucose Cα Test Wako (Wako Pure Chemical Industries, Ltd.), and measurement of insulin in blood plasma was carried out by using a mouse insulin measurement kit (Morinaga Institute of Biological Science, Inc.).

[4] abbreviates: administration dose of 1 mg/kg/day oral.
Setting [5] is: read-out: Hypoglycemic action (30 mg/kg/day).
The mark [6] stands for this setting: read-out: Insulin in blood plasma-lowering action (30 mg/kg/day).

Consider `Cc1cc(OCC2(C(=O)O)CC2)ncc1-c1ccc(-c2ncc(C(F)(F)F)[nH]2)c(Cl)c1` [Example 100-5), 1-{[(5-{3-chloro-4-[5-(trifluoromethyl)-1H-imidazol-2-yl]phenyl}-4-methylpyridin-2-yl)oxy]methyl}cyclopropanecarboxylic acid], for which the inhibition in vivo at 5 mg/kg in assay [1] is 60%.

On to `CC(C)(COc1cnc(-c2ccc(-c3ncc(C4(C(F)(F)F)CC4)[nH]3)cc2)cn1)C(=O)O` [Example 49], for which the inhibition in vivo at 5 mg/kg in assay [1] came to 48%; in assay [2] it was 58%.

With `Cc1cc(OCC(C)(C)C(=O)O)ncc1-c1ccc(-c2ncc(CC3CC3)[nH]2)c(Cl)c1` [Example 121], the inhibition in vivo at 5 mg/kg in assay [1] is 53%; in assay [2], 57%.

`CC(C)(COc1ncc(-c2ccc(-c3ncc(C(F)(F)F)[nH]3)cc2)cn1)C(=O)O` [Example 67]: the inhibition in vivo at 5 mg/kg is 70% in assay [1] and 58% in assay [2].

For `CC(C)CCc1cnc(-c2ccc(-c3ccc(OCC(C)(C)C(=O)O)cc3)nc2)[nH]1` [Example 25], the inhibition in vivo at 5 mg/kg in assay [1] amounted to 54%; in assay [2] it was 81%.

With `CC(C)(COc1cnc(-c2ccc(-c3ncc(C4(C(F)(F)F)CCC4)[nH]3)cc2)cn1)C(=O)O` [Example 48], the inhibition in vivo at 5 mg/kg in assay [1] came to 23%.

As to `CC(C)(COc1ccc(-c2cnc(-c3ncc(C(F)(F)F)[nH]3)c(F)c2)cn1)C(=O)O` [Example 141], the results for the inhibition in vivo at 5 mg/kg in assay [1] and in assay [2] were 82% and 55%, respectively.

Consider `Cc1cc(OCC2(C(=O)O)CCC2)ncc1-c1ccc(-c2ncc(C(F)(F)F)[nH]2)c(Cl)c1` [Example 101-3), 1-{[(5-{3-chloro-4-[5-(trifluoromethyl)-1H-imidazol-2-yl]phenyl}-4-methylpyridin-2-yl)oxy]methyl}cyclobutanecarboxylic acid], for which the inhibition in vivo at 5 mg/kg in assay [1] worked out at 71%; in assay [2] it was 57%.

With `CC(C)(COc1ncc(-c2ccc(-c3ncc(C4(C(F)(F)F)CCC4)[nH]3)cc2)cc1F)C(=O)O` [Example 144], in assay [1], the inhibition in vivo at 5 mg/kg came to 7%.

In the case of `CC(C)(COc1ccc(-c2ccc(-c3nc(C(F)(F)F)c[nH]3)cn2)cc1)C(=O)O` [Example 94-3), 2,2-dimethyl-3-[4-[5-[4-(trifluoromethyl)-1H-imidazol-2-yl]-2-pyridyl]phenoxy]propanoic acid], in assay [3] (setting [4]), the Hypoglycemic action is reported as 42%* and the “Insulin in blood plasma-lowering action” value amounted to 29%*.

Regarding `Cc1cc(OCC(C)(C)C(=O)O)ncc1-c1ccc(-c2ncc(CC(C)C)[nH]2)cc1` [Example 104], the inhibition in vivo at 5 mg/kg came out at 67% in assay [1] and 62% in assay [2].

With `CC(C)(COc1ccc(-c2ccc(-c3ncc(C4CCC(F)(F)CC4)[nH]3)cn2)cc1)C(=O)O` [Example 34], in assay [1], the inhibition in vivo at 5 mg/kg is 19%.

On to `CC(C)(COc1ccc(-c2ccc(-c3ncc(C(F)(F)F)[nH]3)cn2)cc1)C(=O)O` [Example 1-3), 2,2-dimethyl-3-(4-{5-[5-(trifluoromethyl)-1H-imidazol-2-yl]pyridin-2-yl}phenoxy)propanoic acid], for which the values for the inhibition in vivo at 30 mg/kg in assay [3] (setting [5]) and in assay [3] (setting [6]) were 43% and 58%, respectively.

For `Cc1cc(OCC(C)(C)C(=O)O)ncc1-c1ccc(-c2ncc(CC(C)C)[nH]2)c(C)c1` [Example 103], in assay [1], the inhibition in vivo at 5 mg/kg was 8%.

With `Cc1cc(OCC2(C(=O)O)CC2)ncc1-c1cnc(-c2ncc(C(F)(F)F)[nH]2)c(F)c1` [Example 136], the inhibition in vivo at 5 mg/kg in assay [1] is 64%; in assay [2] it was 62%.

Regarding `Cc1cc(OCC(C)(C)C(=O)O)ccc1-c1ccc(-c2ncc(C(F)(F)F)[nH]2)cn1` [Example 9], the inhibition in vivo at 5 mg/kg amounted to 75% in assay [1] and 76% in assay [2].

With `Cc1cc(OCC(C)(C)C(=O)O)ncc1-c1ccc(-c2ncc(C(F)(F)F)[nH]2)c(C2CC2)c1` [Example 131], in assay [1], the inhibition in vivo at 5 mg/kg stood at 57%.

Consider `CC(C)(COc1ccc(-c2ccc(-c3ncc(C(C)(C)C(F)(F)F)[nH]3)cn2)cc1)C(=O)O` [Example 2-3), sodium 2,2-dimethyl-3-(4-{5-[5-(2,2,2-trifluoro-1,1-dimethylethyl)-1H-imidazol-2-yl]pyridin-2-yl}phenoxy)propanoate], for which the inhibition in vivo at 30 mg/kg is 64% in assay [3] (setting [5]), 62% in assay [3] (setting [6]) and 53% in assay [3] (read-out: Weight gain-inhibiting action (30 mg/kg/day)).

On to `Cc1cc(OCC(C)(C)C(=O)O)ncc1-c1ccc(-c2ncc(C3(C(F)(F)F)CCC3)[nH]2)nc1` [Example 46], for which the inhibition in vivo at 5 mg/kg in assay [1] worked out at 13%.

For the compound `Cc1cc(OCC2(C(=O)O)CCC2)ncc1-c1cnc(-c2ncc(C(F)(F)F)[nH]2)c(F)c1` [Example 137], the results for the inhibition in vivo at 5 mg/kg in assay [1] and in assay [2] were 81% and 83%, respectively.

As for `CC(C)(COc1ccc(-c2ccc(-c3ncc(C(C)(C)C(F)(F)F)[nH]3)cn2)cc1)C(=O)O` [Example 2-2), 2,2-dimethyl-3-(4-{5-[5-(2,2,2-trifluoro-1,1-dimethylethyl)-1H-imidazol-2-yl]pyridin-2-yl}phenoxy)propanoic acid], the inhibition in vivo at 5 mg/kg in assay [1] was found to be 76%; in assay [2] it was 64%.

On to `O=C(O)C1(COc2ccc(-c3ccc(-c4ncc(C(F)(F)F)[nH]4)cn3)cc2)CC1` [Example 60-3), 1-[[4-[5-[5-(trifluoromethyl)-1H-imidazol-2-yl]-2-pyridyl]phenoxy]methyl]cyclopropanecarboxylic acid], for which the inhibition in vivo at 5 mg/kg in assay [1] amounted to 48%; in assay [2] it was 59%.

With `CC(C)(COc1cnc(-c2ccc(-c3ncc(C(C)(C)C(F)(F)F)[nH]3)cc2)cn1)C(=O)O` [Example 50], the inhibition in vivo at 5 mg/kg in assay [1] was determined as 21%.

As for `COc1cc(-c2cnc(OCC(C)(C)C(=O)O)cc2C)ccc1-c1ncc(C(F)(F)F)[nH]1` [Example 129], the inhibition in vivo at 5 mg/kg in assay [1] was determined as 16%.

As for `CC(C)(COc1ncc(-c2ccc(-c3ncc(C4(C(F)(F)F)CC4)[nH]3)cc2)cc1F)C(=O)O` [Example 111], the inhibition in vivo at 5 mg/kg in assay [1] worked out at 41%.

As for `CC(C)(COc1ccc(-c2ccc(-c3ncc(C(C)(C)C(F)(F)F)[nH]3)c(F)c2)cn1)C(=O)O` [Example 53], the inhibition in vivo at 5 mg/kg in assay [1] was 36%.

Regarding `CC(C)(COc1ccc(-c2ccc(-c3ncc(C(F)(F)F)[nH]3)c(F)c2F)cn1)C(=O)O` [Example 80], in assay [1], the inhibition in vivo at 5 mg/kg came out at 41%.

Regarding `CC(C)(COc1ccc(-c2ccc(-c3ncc(CCC(F)(F)F)[nH]3)cn2)cc1)C(=O)O` [Example 24], the inhibition in vivo at 5 mg/kg in assay [1] is 33%.

As to `O=C(O)CCCCOc1ccc(-c2ccc(-c3ncc(C(F)(F)F)[nH]3)cn2)cc1` [Example 15], in assay [1], the inhibition in vivo at 5 mg/kg was found to be 32%.

With `CC(C)(COc1ccc(-c2ccc(-c3ncc(C4CCC4)[nH]3)cn2)cc1)C(=O)O` [Example 55-2), 3-[4-[5-(5-cyclobutyl-1H-imidazol-2-yl)-2-pyridyl]phenoxy]-2,2-dimethylpropanoic acid], the inhibition in vivo at 5 mg/kg in assay [2] amounted to 39%.

Consider `O=C(O)C1(COc2ccc(-c3ccc(-c4ncc(C(F)(F)F)[nH]4)cn3)cc2)CCOCC1` [Example 21], for which the inhibition in vivo at 5 mg/kg in assay [1] was 20%.

In the case of `Cc1cc(OCC2(C(=O)O)CC2)ncc1-c1cnc(-c2ncc(C(F)(F)F)[nH]2)c(Cl)c1` [Example 139], in assay [1], the inhibition in vivo at 5 mg/kg turned out to be 52%.

Regarding `Cc1cc(-c2cnc(OCC(C)(C)C(=O)O)nc2)ccc1-c1ncc(C(F)(F)F)[nH]1` [Example 145], the inhibition in vivo at 5 mg/kg in assay [1] was found to be 43%.

Turning to `CC(C)(COc1ccc(-c2ccc(-c3ncc(C(C)(C)C)[nH]3)cn2)cc1)C(=O)O` [Example 57], the inhibition in vivo at 5 mg/kg in assay [1] was determined as 43%.

`CC(C)(COc1ccc(-c2ccc(-c3ncc(C(F)(F)F)[nH]3)cn2)c(F)c1F)C(=O)O` [Example 75]: the inhibition in vivo at 5 mg/kg in assay [1] came to 5%.

Take `CCC(CC)(COc1cc(C)c(-c2ccc(-c3ncc(C(F)(F)F)[nH]3)nc2)cn1)C(=O)O` [Example 127]: the inhibition in vivo at 5 mg/kg in assay [1] came out at 44%.

Take `Cc1cc(OCC(C)(C)C(=O)O)ncc1-c1ccc(-c2ncc(C3(C(F)(F)F)CCC3)[nH]2)c(F)c1` [Example 52]: in assay [1], the inhibition in vivo at 5 mg/kg was found to be 26%.

Regarding `O=C(O)CCCOc1ccc(-c2ccc(-c3ncc(C(F)(F)F)[nH]3)cn2)cc1` [Example 11], in assay [1], the inhibition in vivo at 5 mg/kg is 31%.

Values taken from patent publication US9302996B2, “Continuous arycyclic compound” (MITSUBISHI TANABE PHARMA CORPORATION, priority 2010, dated 2016).
